Experimental data taken from patent US20210348164A1, “ENDOGENOUS CYTOPLASMIC ALU COMPLEMENTARY DNA IN AGE-RELATED MACULAR DEGENERATION” (University of Virginia Patent Foundation, priority 2018, published 2021).
“Also recorded” adds a separate entry of the source.

Experiments:
Alu cDNA = Alu cDNA in RPE flat mounts of Casp1/4 dko mice after subretinal Alu RNA (in situ hybridization); assay type: in vivo, mouse; details: subretinal Alu RNA (or Alu G25C RNA), NNRTIs at high doses
Description: Subretinal and intravitreous injections. Subretinal injections (1 μl for mice, 3 μl for rat) or intravitreous injections (0.5 μl for mice, 2 μl for rat) in mice or rat were performed using a 35-gauge needle (Ito Co. Fuji, Japan). In vivo transfection of Alu RNA or mutant Alu RNA (3.6-300 ng per eye); Alu complementary DNA (cDNA; 0.0036-90 ng per eye); Alu reverse sequence cDNA (3.6-90 ng per eye); or 7SL cDNA (3.6-90 ng per eye) was performed using 10% NEUROPORTER™ transfection reagent (Genlantis, San Diego, Calif., United States of America) as previously described (Kaneko et al., 2011; Tarallo et al., 2012). 3TC, TM-3TC, Cpep-3TC, Cpep, PA-4 3TC, EFV, DLV, or NVP (50 μM/1 μl or 500 μM/1 μl) were administered by intravitreous injection (Mandal et al., 2011; Nasrolahi et al., 2013). 1 μl of cholesterol-conjugated siRNAs (2 μg/μl) targeting mouse LINE1 or Luc (luciferase control; Dharmacon, Lafayette, Colo., United States of America) were subretinally injected three days prior to Alu RNA or vehicle administration. Similarly, in Oryzomys palustris, rat L1 plasmids expressing ORF1p, ORF2p, reverse transcriptase-deficient ORF2p (pORF2 (RT-)), or endonuclease deficient ORF2p (pORF2 (EN-)) were delivered via subretinal injection three days prior to administering Alu RNA or vehicle. The choice of eye for experimental versus control injection was chosen randomly. Rat L1 plasmids expressing ORF1 and ORF2 have been described previously (Kirilyuk et al., 2008). The ORF2 (EN-) construct contained mutations D207A and H232A, which, by CLUSTALW alignment, correspond to human D205A and H230A (see Feng et al., 1996) in the endonuclease domain of ORF2p. The ORF2 (RT-) construct contained mutation D703A, which, by CLUSTALW alignment, corresponds to human D702A (see Moran et al., 1996) in the reverse transcriptase domain of ORF2p.
In situ hybridization. […] Visualization of fluorescein-labelled probe was performed with the TSA™ plus fluorescence system or the TSA™ plus Cy5 system (PerkinElmer). The fluorescent or Cy5 signals were detected using a Leica SP-5 or MR Nikon confocal microscope system.

[1] = test system: Alu RNA-induced RPE degeneration; assay: Alu RNA-induced RPE degeneration in wild-type mice (fundus photography, ZO-1 flat mounts); assay type: in vivo, mouse; details: WT mice
Description: Assessment of RPE degeneration. Subretinal injections were performed as previously described (Kaneko et al., 2011; Tarallo et al., 2012; Kerur et al., 2013; Fowler et al., 2014; Kim et al., 2014). Seven days after subretinal injection, RPE health was assessed by fundus photography and immunofluorescence staining of zonula occludens-1 (ZO-1) on RPE flat mounts (whole mount of posterior eye cup containing RPE and choroid layers). Mouse RPE/choroid flat mounts were fixed with 2% paraformaldehyde, stained with rabbit polyclonal antibodies against mouse ZO-1 (1:100; Invitrogen Corp. Carlsbad, Calif., United States of America) and visualized with Alexa-594 (Invitrogen Corp.). All images were obtained by microscopy (Model SP-5 (Leica Microsystems, Inc., Buffalo Grove, Ill., United States of America) or Nikon MR confocal microscope system (Nikon Instruments Inc. Melville, N.Y., United States of America). Imaging was performed by an operator blinded to the group assignments.
Quantification of RPE degeneration. Quantification of RPE degeneration was performed using two methodologies (binary assignment and cellular morphometry) as described previously (Kerur et al., 2018): Binary assignment (healthy versus unhealthy; Kerur et al., 2013; Fowler et al., 2014; Kim et al., 2014; Kerur et al., 2018) was independently performed by two blinded raters (inter-rater agreement=99.7%; Pearson r2=0.986, P<0.0001; Fleiss x=0.993, P<0.0001). Quantifying cellular morphometry for hexagonally packed cells was performed in semi-automated fashion by three masked graders by adapting our previous analysis of the planar architecture of corneal endothelial cell density (Ach et al., 2015), which resembles the RPE in its polygonal tessellation. Polymegethism (coefficient of variation of cell size), a prominent geometric feature of RPE cells in GA (Kaneko et al., 2011; Dridi et al., 2012; Grossniklaus et al., 2013; Ach et al., 2015), was quantified using the Konan Cell Check software (Ver. 4.0.1), a commercial U.S. FDA-cleared software that has been used for registration clinical trials, as previously described (Kerur et al., 2018).
Subretinal and intravitreous injections. Subretinal injections (1 μl for mice, 3 μl for rat) or intravitreous injections (0.5 μl for mice, 2 μl for rat) in mice or rat were performed using a 35-gauge needle (Ito Co. Fuji, Japan). In vivo transfection of Alu RNA or mutant Alu RNA (3.6-300 ng per eye); Alu complementary DNA (cDNA; 0.0036-90 ng per eye); Alu reverse sequence cDNA (3.6-90 ng per eye); or 7SL cDNA (3.6-90 ng per eye) was performed using 10% NEUROPORTER™ transfection reagent (Genlantis, San Diego, Calif., United States of America) as previously described (Kaneko et al., 2011; Tarallo et al., 2012). […]

[2] = intravitreous, high (500 μmol) doses

Compound: O=C1Nc2ccc(Cl)cc2[C@@](C#CC2CC2)(C(F)(F)F)O1 [EFV, efavirenz]
- Alu cDNA in RPE in vivo (Alu cDNA): prevented Alu cDNA formation in vivo; also recorded: blocked endogenous cDNA synthesis
- Alu RNA-induced RPE degeneration [1, 2]: blocked Alu RNA toxicity; also recorded: inhibited

Compound: L1 siRNA: siRNA targeting L1; cholesterol-conjugated mouse L1 siRNA (SEQ ID NOs: 48 and 49) in vivo, human L1 siRNA sequences in human cells (chain 1 ACUAUUACUCUGAUACCTT; chain 2 UGUACUAAGGUCAAAUCTT; cholesterol conjugated, position not given here)
- Alu RNA-induced RPE degeneration ([1]; subretinal cholesterol-conjugated L1 siRNA vs control siRNA): prevented Alu RNA-induced RPE degeneration in wild-type mice; also recorded: blocked Alu RNA induced RPE degeneration

Compound: CC(C)Nc1cccnc1N1CCN(C(=O)c2cc3cc(NS(C)(=O)=O)ccc3[nH]2)CC1 [DLV, delavirdine]
- Alu cDNA in RPE in vivo (Alu cDNA): prevented Alu cDNA formation in vivo; also recorded: blocked endogenous cDNA synthesis
- Alu RNA-induced RPE degeneration [1, 2]: blocked Alu RNA toxicity; also recorded: inhibited

Compound: Cc1ccnc2c1NC(=O)c1cccnc1N2C1CC1 [NVP, nevirapine]
- Alu cDNA in RPE in vivo (Alu cDNA): did not prevent Alu cDNA synthesis
- Alu RNA-induced RPE degeneration [1, 2]: did not prevent Alu RNA-induced RPE degeneration at low or high doses
